Test results taken from patent US11427548B2 (Arvinas Operations, Inc., priority 2015, dated 2022).

Molecular target: T1, Androgen Receptor (Homo sapiens, UniProt P10275+P40337, T878A)
T1 construct: Compounds have been evaluated in this assay in LNCaP and/or VCaP cells utilizing similar protocols; endogenous in cells; host or cells: LNCaP cells
Experiment: Androgen Receptor ELISA assay (PathScan AR ELISA) in LNCaP cells: AR degradation, Dmax and DC50
Assay type: cell-based
Conditions: for DC50: concentration that caused 50% Androgen Receptor degradation

[1] = highest percentage of Androgen Receptor degradation
[2] = highest percentage of Androgen Receptor degradation observed

T1 sequence (P10275 whole entry T878A): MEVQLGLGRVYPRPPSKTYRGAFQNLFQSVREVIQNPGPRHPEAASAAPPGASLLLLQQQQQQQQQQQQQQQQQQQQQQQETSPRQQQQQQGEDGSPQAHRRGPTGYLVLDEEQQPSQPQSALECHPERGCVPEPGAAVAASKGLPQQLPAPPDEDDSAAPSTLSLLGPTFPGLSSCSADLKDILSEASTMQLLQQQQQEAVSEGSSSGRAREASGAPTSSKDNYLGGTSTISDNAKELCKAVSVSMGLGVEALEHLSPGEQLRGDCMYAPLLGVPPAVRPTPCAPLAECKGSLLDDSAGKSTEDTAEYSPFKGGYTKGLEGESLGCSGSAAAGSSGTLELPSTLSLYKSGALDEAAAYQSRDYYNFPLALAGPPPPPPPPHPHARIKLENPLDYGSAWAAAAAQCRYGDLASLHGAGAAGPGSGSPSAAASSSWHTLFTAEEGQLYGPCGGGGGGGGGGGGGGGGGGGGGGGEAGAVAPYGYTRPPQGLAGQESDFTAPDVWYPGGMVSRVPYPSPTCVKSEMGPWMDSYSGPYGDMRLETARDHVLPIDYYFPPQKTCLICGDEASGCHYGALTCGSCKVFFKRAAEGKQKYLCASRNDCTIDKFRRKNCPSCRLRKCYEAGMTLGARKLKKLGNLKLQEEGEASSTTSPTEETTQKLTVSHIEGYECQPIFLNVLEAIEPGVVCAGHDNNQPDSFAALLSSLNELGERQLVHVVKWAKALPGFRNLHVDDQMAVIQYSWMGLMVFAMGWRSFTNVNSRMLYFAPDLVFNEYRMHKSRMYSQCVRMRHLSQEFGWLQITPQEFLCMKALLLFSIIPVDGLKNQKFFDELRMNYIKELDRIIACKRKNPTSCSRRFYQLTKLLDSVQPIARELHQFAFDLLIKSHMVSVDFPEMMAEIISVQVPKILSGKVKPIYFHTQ
T1 sequence (P40337 whole entry): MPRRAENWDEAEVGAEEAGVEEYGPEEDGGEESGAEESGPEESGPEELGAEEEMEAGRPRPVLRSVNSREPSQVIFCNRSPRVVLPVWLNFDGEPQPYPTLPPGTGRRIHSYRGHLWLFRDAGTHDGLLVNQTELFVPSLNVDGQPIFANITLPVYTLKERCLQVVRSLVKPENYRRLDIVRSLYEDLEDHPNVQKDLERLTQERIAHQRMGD
T1 sequence (Q15369 whole entry partner): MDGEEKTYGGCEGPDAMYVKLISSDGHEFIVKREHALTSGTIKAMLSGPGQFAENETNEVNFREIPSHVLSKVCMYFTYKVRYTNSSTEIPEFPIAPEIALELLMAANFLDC
T1 sequence (Q15370 whole entry partner): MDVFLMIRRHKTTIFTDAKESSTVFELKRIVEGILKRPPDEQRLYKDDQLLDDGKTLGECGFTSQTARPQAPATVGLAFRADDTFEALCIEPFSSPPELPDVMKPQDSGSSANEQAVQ

SMILES | DC50 [nM] | Dmax [1] [%] | Dmax [2] [%]
Cc1ncsc1-c1ccc(CNC(=O)[C@@H]2C[C@@H](O)CN2C(=O)[C@@H](NC(=O)COCCCOC2CCN(C(=O)c3ccc(N4C(=S)N(c5ccc(C#N)c(C(F)(F)F)c5)C(=O)C4(C)C)cc3)CC2)C(C)(C)C)cc1 [Example 290] | > 501 | 51 to 70 | 
Cc1ncsc1-c1ccc(CNC(=O)[C@@H]2C[C@@H](O)CN2C(=O)[C@@H](NC(=O)CCCCOCCCCCOc2ccc(N3C(=S)N(c4ccc(C#N)c(C(F)(F)F)c4)C(=O)C3(C)C)cc2)C(C)(C)C)cc1 [Example 246] | 51 to 500 | > 71 | 
Cc1ncsc1-c1ccc(CNC(=O)[C@@H]2C[C@@H](O)CN2C(=O)[C@@H](NC(=O)c2ccc(C3CCN(CCCCOc4ccc(N5C(=S)N(c6ccc(C#N)c(C(F)(F)F)c6)C(=O)C5(C)C)cc4)CC3)cc2)C(C)(C)C)cc1 [Example 287] | > 501 | 51 to 70 | 
Cc1ncsc1-c1ccc(CNC(=O)[C@@H]2C[C@@H](O)CN2C(=O)[C@H](C(C)C)N2Cc3ccccc3C2=O)c(OCCOCCOCCCCCOCCOCCOc2ccc(N3C(=S)N(c4ccc(C#N)c(C(F)(F)F)c4)C(=O)C3(C)C)cc2)c1 [Example 218] |  | 26 to 50 | 
Cc1ncsc1-c1ccc(CNC(=O)[C@@H]2C[C@@H](O)CN2C(=O)[C@@H](NC(=O)c2ccc(C3CCN(CCCOc4ccc(N5C(=S)N(c6ccc(C#N)c(C(F)(F)F)c6)C(=O)C5(C)C)cc4)CC3)cc2)C(C)(C)C)cc1 [Example 289] | > 501 | 26 to 50 | 
Cc1ncsc1-c1ccc(CNC(=O)[C@@H]2C[C@@H](O)CN2C(=O)[C@@H](NC(=O)CCCCCOCCCCCOc2ccc(N3C(=S)N(c4ccc(C#N)c(C(F)(F)F)c4)C(=O)C3(C)C)cc2)C(C)(C)C)cc1 [Example 249] | 51 to 500 | > 71 | 
Cc1ncsc1-c1ccc(CNC(=O)[C@@H]2C[C@@H](O)CN2C(=O)[C@@H](NC(=O)COCCOCCCCOCCCCOCCOCCOc2ccc(N3C(=S)N(c4ccc(C#N)c(C(F)(F)F)c4)C(=O)C3(C)C)cc2)C(C)(C)C)cc1 [Example 223] |  | 26 to 50 | 
Cc1ncsc1-c1ccc(CNC(=O)[C@@H]2C[C@@H](O)CN2C(=O)[C@H](C(C)C)N2Cc3cc(CCCCCOc4ccc(N5C(=S)N(c6ccc(C#N)c(C(F)(F)F)c6)C(=O)C5(C)C)cc4)ccc3C2=O)cc1 [Example 251] | 51 to 500 | 51 to 70 | 
Cc1ncsc1-c1ccc(CNC(=O)[C@@H]2C[C@@H](O)CN2C(=O)[C@@H](NC(=O)c2ccccc2OCCCCOc2ccc(N3C(=S)N(c4ccc(C#N)c(C(F)(F)F)c4)C(=O)C3(C)C)cc2)C(C)(C)C)cc1 [Example 276] | > 501 | < 25 | 
Cc1ncsc1-c1ccc(CNC(=O)[C@@H]2C[C@@H](O)CN2C(=O)[C@H](C(C)C)N2Cc3ccccc3C2=O)c(OCCOCCOc2ccc(N3C(=S)N(c4ccc(C#N)c(C(F)(F)F)c4)C(=O)C3(C)C)cc2)c1 [Example 206] | 51 to 500 | 51 to 70 | 
Cc1ncsc1-c1ccc(CNC(=O)[C@@H]2C[C@@H](O)CN2C(=O)[C@@H](NC(=O)COCCCOCCOCCOc2ccc(N3C(=S)N(c4ccc(C#N)c(C(F)(F)F)c4)C(=O)C3(C)C)cc2)C(C)(C)C)cc1 [Example 253] | 51 to 500 | 51 to 70 | 
Cc1ncsc1-c1ccc([C@H](C)NC(=O)[C@@H]2C[C@@H](O)CN2C(=O)[C@@H](NC(=O)COCCOCCOCCOc2ccc(N3C(=S)N(c4ccc(C#N)c(C(F)(F)F)c4)C(=O)C3(C)C)cc2)C(C)(C)C)cc1 [Example 20, (2S,4R)-1-[(2S)-2-[2-(2-{2-[2-(4-{3-[4-cyano-3-(trifluoromethyl)phenyl]-5,5-dimethyl-4-oxo-2-sulfanylideneimidazolidin-1-yl}phenoxy)ethoxy]ethoxy}ethoxy)acetamido]-3,3-dimethylbutanoyl]-4-hydroxy-N-[(1S)-1-[4-(4-methyl-1,3-thiazol-5-yl)phenyl]ethyl]pyrrolidine-2-carboxamide] | 51 to 500 |  | > 71
Cc1ncsc1-c1ccc(CNC(=O)[C@@H]2C[C@@H](O)CN2C(=O)[C@H](C(C)C)N2Cc3ccccc3C2=O)c(OCCOCCOCCCOCCOCCOc2ccc(N3C(=S)N(c4ccc(C#N)c(C(F)(F)F)c4)C(=O)C3(C)C)cc2)c1 [Example 214] | 51 to 500 | 51 to 70 | 
Cc1ncsc1-c1ccc(CNC(=O)[C@@H]2C[C@@H](O)CN2C(=O)[C@@H](NC(=O)CCCOCCOCCNC(=O)c2ccc(N3C(=S)N(c4ccc(C#N)c(C(F)(F)F)c4)C(=O)C3(C)C)cc2F)C(C)(C)C)cc1 [Example 245] | > 501 | 26 to 50 | 
Cc1ncsc1-c1ccc(CNC(=O)[C@@H]2C[C@@H](O)CN2C(=O)[C@H](C(C)C)N2Cc3ccccc3C2=O)c(OCCOCCOCCOc2ccc(N3C(=S)N(c4ccc(C#N)c(C(F)(F)F)c4)C(=O)C3(C)C)cc2)c1 [Example 82, (2S,4R)—N-(2-(2-(2-(2-(4-(3-(4-cyano-3-(trifluoromethyl)phenyl)-5,5-dimethyl-4-oxo-2-thioxoimidazolidin-1-yl)phenoxy)ethoxy)ethoxy)ethoxy)-4-(4-methylthiazol-5-yl)benzyl)-4-hydroxy-1-((S)-3-methyl-2-(1-oxoisoindolin-2-yl)butanoyl)pyrrolidine-2-carboxamide] | 51 to 500 |  | 51 to 70
Cc1ncsc1-c1ccc(CNC(=O)[C@@H]2C[C@@H](O)CN2C(=O)[C@@H](NC(=O)c2ccc(OCCCOc3ccc(N4C(=S)N(c5ccc(C#N)c(C(F)(F)F)c5)C(=O)C4(C)C)cc3)cc2)C(C)(C)C)cc1 [Example 265] | 51 to 500 | < 25 | 

SMILES | DC50 [nM] | Dmax [1] [%] | Dmax [2] [%]
Cc1ncsc1-c1ccc(CNC(=O)[C@@H]2C[C@@H](O)CN2C(=O)[C@@H](NC(=O)OCCOCCCOCCOc2ccc(N3C(=S)N(c4ccc(C#N)c(C(F)(F)F)c4)C(=O)C3(C)C)cc2)C(C)(C)C)cc1 [Example 239] | < 50 | 51 to 70 | 
CCC(=O)N[C@H](C(=O)N1C[C@H](O)C[C@H]1C(=O)NCc1ccc(-c2scnc2C)cc1OCCOCCOCCOc1ccc(N2C(=O)N(c3ccc(C#N)c(C(F)(F)F)c3)C(=O)C2(C)C)cc1)C(C)(C)C [Example 268] | > 501 | 51 to 70 | 
Cc1ncsc1-c1ccc(CNC(=O)[C@@H]2C[C@@H](O)CN2C(=O)[C@@H](NC(=O)c2ccc(OCCOc3ccc(-c4ccc(N5C(=S)N(c6ccc(C#N)c(C(F)(F)F)c6)C(=O)C5(C)C)cc4)cc3)cc2)C(C)(C)C)cc1 [Example 286] | < 50 | 51 to 70 | 
Cc1ncsc1-c1ccc(CNC(=O)[C@@H]2C[C@@H](O)CN2C(=O)[C@H](C(C)C)N2Cc3ccccc3C2=O)c(OCCCOCCCOc2ccc(N3C(=S)N(c4ccc(C#N)c(C(F)(F)F)c4)C(=O)C3(C)C)cc2)c1 [Example 250] | 51 to 500 | > 71 | 
Cc1ncsc1-c1ccc(CNC(=O)[C@@H]2C[C@@H](O)CN2C(=O)[C@H](C(C)C)N2Cc3ccccc3C2=O)c(OCCOCCOCCOCCOCCOc2ccc(N3C(=S)N(c4ccc(C#N)c(C(F)(F)F)c4)C(=O)C3(C)C)cc2)c1 [Example 211] | 51 to 500 | 26 to 50 | 
Cc1ncsc1-c1ccc(CNC(=O)[C@@H]2C[C@@H](O)CN2C(=O)[C@@H](NC(=O)CCOCCOCCCCCOc2ccc(N3C(=S)N(c4ccc(C#N)c(C(F)(F)F)c4)C(=O)C3(C)C)cc2)C(C)(C)C)cc1 [Example 228] | 51 to 500 | 51 to 70 | 
Cc1ncsc1-c1ccc(CNC(=O)[C@@H]2C[C@@H](O)CN2C(=O)[C@H](C(C)C)N2Cc3ccccc3C2=O)c(OCCCOCCOCCOc2ccc(N3C(=S)N(c4ccc(C#N)c(C(F)(F)F)c4)C(=O)C3(C)C)cc2)c1 [Example 205] | > 501 | < 25 | 
Cc1ncsc1-c1ccc(CNC(=O)[C@@H]2C[C@@H](O)CN2C(=O)[C@H](C(C)C)N2Cc3ccccc3C2=O)c(OCCCCOCCCCOCCCCOc2ccc(N3C(=S)N(c4ccc(C#N)c(C(F)(F)F)c4)C(=O)C3(C)C)cc2)c1 [Example 207] | 51 to 500 | 26 to 50 | 
Cc1ncsc1-c1ccc(CNC(=O)[C@@H]2C[C@@H](O)CN2C(=O)[C@@H](NC(=O)c2ccccc2OCCOCCOc2ccc(N3C(=S)N(c4ccc(C#N)c(C(F)(F)F)c4)C(=O)C3(C)C)cc2)C(C)(C)C)cc1 [Example 282] | 51 to 500 | 51 to 70 | 
Cc1ncsc1-c1ccc(CNC(=O)[C@@H]2C[C@@H](O)CN2C(=O)[C@H](C(C)C)N2Cc3ccccc3C2=O)c(OCCCOc2ccc(N3C(=S)N(c4ccc(C#N)c(C(F)(F)F)c4)C(=O)C3(C)C)cc2)c1 [Example 254] | 51 to 500 | 51 to 70 | 
Cc1ncsc1-c1ccc(CNC(=O)[C@@H]2C[C@@H](O)CN2C(=O)[C@@H](NC(=O)CCOCCOc2ccc(N3C(=S)N(c4ccc(C#N)c(C(F)(F)F)c4)C(=O)C3(C)C)cc2)C(C)(C)C)cc1 [Example 233] | > 501 | 51 to 70 | 
Cc1ncsc1-c1ccc(CNC(=O)[C@@H]2C[C@@H](O)CN2C(=O)[C@@H](NC(=O)c2ccc(OCCOCCCCOc3ccc(N4C(=S)N(c5ccc(C#N)c(C(F)(F)F)c5)C(=O)C4(C)C)cc3)cc2)C(C)(C)C)cc1 [Example 263] | 51 to 500 | 26 to 50 | 
Cc1ncsc1-c1ccc(CNC(=O)[C@@H]2C[C@@H](O)CN2C(=O)[C@H](C(C)C)N2Cc3ccccc3C2=O)c(OCCCCOc2ccc(N3C(=S)N(c4ccc(C#N)c(C(F)(F)F)c4)C(=O)C3(C)C)cc2)c1 [Example 256] | 51 to 500 | 51 to 70 | 
CC(=O)NCC(=O)N1C[C@H](O)C[C@H]1C(=O)NCc1ccc(-c2scnc2C)cc1OCCOCCOCCOc1ccc(N2C(=S)N(c3ccc(C#N)c(C(F)(F)F)c3)C(=O)C2(C)C)cc1 [Example 271] | > 501 | 26 to 50 | 
Cc1ncsc1-c1ccc(CNC(=O)[C@@H]2C[C@@H](O)CN2C(=O)[C@@H](NC(=O)COCCOc2ccc(N3C(=S)N(c4ccc(C#N)c(C(F)(F)F)c4)C(=O)C3(C)C)cc2)C(C)(C)C)cc1 [Example 236] | > 501 | 26 to 50 | 
